Measurements reported in US20050137130A1, “Medical treatment” (priority 2001, published 2005).

Tested on: Notch signalling in CHO-N2 (N27#11) cells expressing full length human Notch2
Assay: CHO-N2 (N27) luciferase reporter assay, CHO-Delta antagonist assay
Format: cell-based
Conditions: soluble protein, N27#11 reporter cells co-cultured with CHO-Delta cells overnight
Text: An adenovirus major late promoter TATA-box motif with BglII and HindIII cohesive ends was generated as follows:
This was cloned into plasmid pGL3-Basic (Promega) between the BgiII and HindIII sites to generate plasmid pGL3-AdTATA.
A TP1 promoter sequence (TP1; equivalent to 2 CBF1 repeats) with BamH1 and BglII cohesive ends was generated as follows:
This sequence was pentamerised by repeated insertion into a BglII site and the resulting TP1 pentamer (equivalent to 10 CBF1 repeats) was inserted into pGL3-AdTATA at the BglII site to generate plasmid pLOR91.
A cDNA clone spanning the complete coding sequence of the human Notch2 gene (see, eg GenBank Accession No AF315356) was constructed as follows. A 3′ cDNA fragment encoding the entire intracellular domain and a portion of the extracellular domain was isolated from a human placental cDNA library (OriGene Technologies Ltd., USA) using a PCR-based screening strategy. […]
CHO-Delta cells (as described above) were maintained in DMEM plus 10% (HI)FCS plus glutamine plus P/S plus 0.5 mg/ml G418. Just prior to use the cells were removed from a T80 flask using 0.02% EDTA solution (Sigma), spun down and resuspended in 10 ml DMEM plus 10%(HI)FCS plus glutamine plus P/S. 10 μl of cells were counted and the cell density was adjusted to 5.0×10^5 cells/ml with fresh DMEM plus 10%(HI)FCS plus glutamine plus P/S. […]

Substance	inhibition of Notch signalling from CHO-Delta cells
hDelta1-IgG4Fc: fusion protein comprising the extracellular domain of human Delta1 fused to the Fc domain of human IgG4 (SEQ ID NO: 5)	inhibition of Notch signalling
hJagged1EGF1&2-IgG4Fc: human jagged1 sequence up to the end of EGF2 (leader, amino terminal, DSL, EGF1+2) fused to the Fc domain of human IgG4 (SEQ ID NO: 10)	substantially the same inhibition of Notch signalling
